From patent publication US9481677B2, “Biaryl ether sulfonamides and their use as therapeutic agents” (XENON PHARMACEUTICALS INC., priority 2011, dated 2016)

Target: Nav1.7 (Homo sapiens (Human), UniProt Q15858)
Test: Patch voltage clamp electrophysiology, block of inactivated-state Nav1.7 in HEK-293 cells
Type: cell-based
Conditions: affinity for the inactivated state; HEK-293 cells with β1 subunit; held at -60 mV; read-out: NaV1.7 (IC50 class)
Experimental: Patch voltage clamp electrophysiology allows for the direct measurement and quantification of block of voltage-gated sodium channels (Nav's), and allows the determination of the time- and voltage-dependence of block which has been interpreted as differential binding to the resting, open, and inactivated states of the sodium channel (Hille, B., Journal of General Physiology (1977), 69: 497-515).
The following patch voltage clamp electrophysiology studies were performed on representative compounds of the invention using human embryonic kidney cells (HEK), permanently transfected with an expression vector containing the full-length cDNA coding for the desired human sodium channel α-subunit, grown in culture media containing 10% FBS, 1% PSG, and 0.5 mg/mL G418 at 37° C. with 5% CO2. […] Nav1.7 and Nav1.5 cDNAs (NM_002977 and AC137587; SCN5A, respectively) were stably expressed in HEK-293 cells. The β1 subunit was coexpressed only in the Nav1.7 cell line.
Sodium currents were measured using the patch clamp technique in the whole-cell configuration using either a PatchXpress automated voltage clamp or manually using an Axopatch 200B (Axon Instruments) or Model 2400 (A-M systems) amplifier. […] The pipette was filled with a solution comprised of: 5 mM NaCl, 10 mM CsCl, 120 mM CsF, 0.1 mM CaCl2, 2 mM MgCl2, 10 mM HEPES, 10 mM EGTA; and adjusted to pH 7.2 with CsOH. The external solution had the following composition: 140 mM NaCl, 5 mM KCl, 2 mM CaCl2, 1 mM MgCl2, 10 mM HEPES; and adjusted to pH 7.4 with NaOH. In some studies, the external sodium was reduced by equimolar replacement with choline. Osmolarity in the CsF internal and NaCl external solutions was adjusted to 300 mOsm/kg and 310 mOsm/kg with glucose, respectively. All recordings were performed at ambient temperature in a bath chamber with a volume of 150 μL. Control sodium currents were measured in 0.5% DMSO. Controls and representative compounds of the invention were applied to the recording chamber through a 4-pinch or 8-pinch valve bath perfusion system manufactured by ALA Scientific Instruments.
Currents were recorded at 40 kHz sampling frequency, filtered at […], and stored using a Digidata-1322A analogue/digital interface with the pClamp software (Axon Instruments). Series resistance compensation was applied (60-80%). […] All statistics in this study are given as mean±SD.
The membrane potential was maintained at a voltage where inactivation of the channel is complete (which was −60 mV for both Nav1.7 and Nav1.5). The voltage is then stepped back to a very negative (Vhold=−150 mV) voltage for 20 ms and then a test pulse is applied to quantify the compound block. […] The percent decrease in sodium current following wash-on of compound was taken as the percent block of sodium channels.
The Example numbers provided in Table 1 and Table 2 correspond to the Examples herein.

Chain of Nav1.7 (Q15858 other isoform, or with tags, fused parts or gaps): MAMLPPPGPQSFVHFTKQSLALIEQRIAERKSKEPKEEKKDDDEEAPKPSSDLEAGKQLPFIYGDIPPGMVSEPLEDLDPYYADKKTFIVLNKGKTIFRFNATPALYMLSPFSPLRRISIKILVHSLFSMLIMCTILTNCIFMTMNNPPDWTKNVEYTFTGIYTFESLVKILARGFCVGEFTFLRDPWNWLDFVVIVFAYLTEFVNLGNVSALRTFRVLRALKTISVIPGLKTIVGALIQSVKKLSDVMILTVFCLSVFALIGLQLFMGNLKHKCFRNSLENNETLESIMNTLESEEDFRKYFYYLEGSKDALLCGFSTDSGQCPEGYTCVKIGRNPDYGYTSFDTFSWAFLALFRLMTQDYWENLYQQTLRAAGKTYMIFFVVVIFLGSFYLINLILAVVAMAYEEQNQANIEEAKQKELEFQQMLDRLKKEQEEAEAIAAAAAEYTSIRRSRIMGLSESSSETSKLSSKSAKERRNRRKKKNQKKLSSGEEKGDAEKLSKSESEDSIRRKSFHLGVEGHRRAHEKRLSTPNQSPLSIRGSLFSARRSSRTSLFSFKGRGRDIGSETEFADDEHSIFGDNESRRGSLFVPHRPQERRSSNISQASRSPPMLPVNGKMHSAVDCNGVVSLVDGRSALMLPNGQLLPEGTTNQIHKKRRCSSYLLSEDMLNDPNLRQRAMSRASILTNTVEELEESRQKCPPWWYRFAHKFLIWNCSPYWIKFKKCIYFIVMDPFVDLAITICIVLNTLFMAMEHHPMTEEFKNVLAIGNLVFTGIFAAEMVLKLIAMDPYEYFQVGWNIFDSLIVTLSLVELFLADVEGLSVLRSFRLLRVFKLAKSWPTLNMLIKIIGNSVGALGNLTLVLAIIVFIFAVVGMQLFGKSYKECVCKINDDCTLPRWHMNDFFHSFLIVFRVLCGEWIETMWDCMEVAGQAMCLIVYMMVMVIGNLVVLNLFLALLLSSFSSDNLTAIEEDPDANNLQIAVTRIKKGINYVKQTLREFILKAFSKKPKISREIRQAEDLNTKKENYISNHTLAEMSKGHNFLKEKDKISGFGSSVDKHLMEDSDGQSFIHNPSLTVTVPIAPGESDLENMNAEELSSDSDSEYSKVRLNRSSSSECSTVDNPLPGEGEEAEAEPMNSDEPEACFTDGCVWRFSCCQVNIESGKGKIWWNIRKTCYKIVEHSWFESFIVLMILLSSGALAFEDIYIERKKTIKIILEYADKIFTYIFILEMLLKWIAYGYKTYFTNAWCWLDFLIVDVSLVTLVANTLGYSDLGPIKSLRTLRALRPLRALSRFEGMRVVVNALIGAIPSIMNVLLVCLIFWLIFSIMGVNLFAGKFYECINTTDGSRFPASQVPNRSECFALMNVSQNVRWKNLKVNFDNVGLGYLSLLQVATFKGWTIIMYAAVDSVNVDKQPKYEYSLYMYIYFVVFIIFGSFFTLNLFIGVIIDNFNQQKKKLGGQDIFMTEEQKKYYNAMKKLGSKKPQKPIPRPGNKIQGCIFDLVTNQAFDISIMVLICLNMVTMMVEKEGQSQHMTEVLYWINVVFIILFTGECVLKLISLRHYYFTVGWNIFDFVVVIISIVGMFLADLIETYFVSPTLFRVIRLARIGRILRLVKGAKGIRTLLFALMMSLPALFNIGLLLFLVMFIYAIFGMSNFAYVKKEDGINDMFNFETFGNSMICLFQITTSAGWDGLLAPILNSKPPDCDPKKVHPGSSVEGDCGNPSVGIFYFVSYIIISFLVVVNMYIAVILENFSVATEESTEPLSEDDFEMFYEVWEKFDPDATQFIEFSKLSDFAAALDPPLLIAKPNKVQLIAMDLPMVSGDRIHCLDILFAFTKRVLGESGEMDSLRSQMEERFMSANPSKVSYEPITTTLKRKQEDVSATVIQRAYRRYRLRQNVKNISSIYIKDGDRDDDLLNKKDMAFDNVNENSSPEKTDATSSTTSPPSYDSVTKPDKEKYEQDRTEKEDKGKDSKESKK
Chain of Nav1.7 (Q07699 19-218 partner): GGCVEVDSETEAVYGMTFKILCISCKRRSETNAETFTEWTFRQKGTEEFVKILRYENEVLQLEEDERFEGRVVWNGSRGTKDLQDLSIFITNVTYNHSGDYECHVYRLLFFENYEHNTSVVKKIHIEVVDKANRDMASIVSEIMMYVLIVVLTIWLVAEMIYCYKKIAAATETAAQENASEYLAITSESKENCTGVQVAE

SMILES | IC50
O=S(=O)(Nc1ncns1)c1cc(F)c(Oc2ccc(Cl)cc2-c2cnc3n2CCNC3)cc1F [Example 32, 4-(4-chloro-2-(5,6,7,8-tetrahydroimidazo[1,2-a]pyrazin-3-yl)phenoxy)-2,5-difluoro-N-(1,2,4-thiadiazol-5-yl)benzenesulfonamide] | 100 to 1000 nM
Nc1n[nH]c2ccc(-c3cc(Cl)ccc3Oc3cc(F)c(S(=O)(=O)Nc4ncns4)cc3F)cc12 [Example 45, 4-(2-(3-amino-1H-indazol-5-yl)-4-chlorophenoxy)-2,5-difluoro-N-(1,2,4-thiadiazol-5-yl)benzenesulfonamide] | ≤ 100 nM
O=c1[nH]c2ccc(-c3cc(Cl)ccc3Oc3cc(F)c(S(=O)(=O)Nc4ncns4)cc3F)cc2[nH]1 [Example 48, 4-(4-chloro-2-(2-oxo-2,3-dihydro-1H-benzo[d]imidazol-5-yl)phenoxy)-2,5-difluoro-N-(1,2,4-thiadiazol-5-yl)benzenesulfonamide] | ≤ 100 nM
Nc1noc2ccc(-c3cc(Cl)ccc3Oc3cc(F)c(S(=O)(=O)Nc4cscn4)cc3F)cc12 [Example 49, 4-(2-(3-aminobenzo[d]isoxazol-5-yl)-4-chlorophenoxy)-2,5-difluoro-N-(thiazol-4-yl)benzenesulfonamide] | ≤ 100 nM
O=c1[nH]c2cc(-c3cc(Cl)ccc3Oc3cc(F)c(S(=O)(=O)Nc4ncns4)cc3F)ccc2o1 [Example 52, 4-(4-chloro-2-(2-oxo-2,3-dihydrobenzo[d]oxazol-5-yl)phenoxy)-2,5-difluoro-N-(1,2,4-thiadiazol-5-yl)benzenesulfonamide] | ≤ 100 nM
O=S(=O)(Nc1ncns1)c1cc(F)c(Oc2ccc(Cl)cc2-c2ccc3[nH]c(C(F)(F)F)nc3c2)cc1F [Example 54, 4-(4-chloro-2-(2-(trifluoromethyl)-1H-benzo[d]imidazol-5-yl)phenoxy)-2,5-difluoro-N-(1,2,4-thiadiazol-5-yl)benzenesulfonamide] | ≤ 100 nM
Nc1noc2ccc(-c3ccccc3Oc3cc(F)c(S(=O)(=O)Nc4ncns4)cc3F)cc12 [Example 58, 4-(2-(3-aminobenzo[d]isoxazol-5-yl)phenoxy)-2,5-difluoro-N-(1,2,4-thiadiazol-5-yl)benzenesulfonamide] | ≤ 100 nM
Nc1noc2ccc(-c3cc(Cl)ccc3Oc3cc(F)c(S(=O)(=O)Nc4ncccn4)cc3F)cc12 [Example 63, 4-(2-(3-aminobenzo[d]isoxazol-5-yl)-4-chlorophenoxy)-2,5-difluoro-N-(pyrimidin-2-yl)benzenesulfonamide] | ≤ 100 nM
Nc1noc2ccc(-c3cc(Cl)ccc3Oc3cc(F)c(S(=O)(=O)Nc4ncns4)c(F)c3)cc12 [Example 64, 4-(2-(3-aminobenzo[d]isoxazol-5-yl)-4-chlorophenoxy)-2,6-difluoro-N-(1,2,4-thiadiazol-5-yl)benzenesulfonamide] | ≤ 100 nM
Nc1noc2ccc(-c3cc(Cl)ccc3Oc3ccc(S(=O)(=O)Nc4ncns4)c(F)c3F)cc12 [Example 65, 4-(2-(3-aminobenzo[d]isoxazol-5-yl)-4-chlorophenoxy)-2,3-difluoro-N-(1,2,4-thiadiazol-5-yl)benzenesulfonamide] | ≤ 100 nM
CNc1noc2ccc(-c3cc(Cl)ccc3Oc3cc(F)c(S(=O)(=O)Nc4ncns4)cc3F)cc12 [Example 69, 4-(4-chloro-2-(3-(methylamino)benzo[d]isoxazol-5-yl)phenoxy)-2,5-difluoro-N-(1,2,4-thiadiazol-5-yl)benzenesulfonamide] | ≤ 100 nM

Other lines, results leading:

IC50 | SMILES
≤ 100 nM | O=S(=O)(Nc1ncns1)c1cc(F)c(Oc2ccc(Cl)cc2-c2cccc3nccn23)cc1F [Example 30, 4-(4-chloro-2-(imidazo[1,2-a]pyridin-5-yl)phenoxy)-2,5-difluoro-N-(1,2,4-thiadiazol-5-yl)benzenesulfonamide]
≤ 100 nM | O=S(=O)(Nc1ncns1)c1cc(F)c(Oc2ccc(Cl)cc2-c2ccnc3nccn23)cc1F [Example 31, 4-(4-chloro-2-(imidazo[1,2-a]pyrimidin-5-yl)phenoxy)-2,5-difluoro-N-(1,2,4-thiadiazol-5-yl)benzenesulfonamide]
100 to 1000 nM | O=c1[nH]cc(-c2cc(Cl)ccc2Oc2cc(F)c(S(=O)(=O)Nc3ncns3)cc2F)n2cncc12 [Example 35, 4-(4-chloro-2-(8-oxo-7,8-dihydroimidazo[1,5-a]pyrazin-5-yl)phenoxy)-2,5-difluoro-N-(1,2,4-thiadiazol-5-yl)benzenesulfonamide]
1000 to 10000 nM | O=S(=O)(Nc1ncns1)c1cc(F)c(Oc2ccc(Cl)cc2-c2ncc3cnccn23)cc1F [Example 36, 4-(4-chloro-2-(imidazo[1,5-a]pyrazin-3-yl)phenoxy)-2,5-difluoro-N-(1,2,4-thiadiazol-5-yl)benzenesulfonamide]
≤ 100 nM | Nc1nc2cc(-c3cc(Cl)ccc3Oc3cc(F)c(S(=O)(=O)Nc4ncns4)cc3F)ccc2[nH]1 [Example 38, 4-(2-(2-amino-1H-benzo[d]imidazol-5-yl)-4-chlorophenoxy)-2,5-difluoro-N-(1,2,4-thiadiazol-5-yl)benzenesulfonamide]
1000 to 10000 nM | Cn1cnc2c(-c3cc(Cl)ccc3Oc3cc(F)c(S(=O)(=O)Nc4ncns4)cc3F)ncnc21 [Example 39, 4-(4-chloro-2-(9-methyl-9H-purin-6-yl)phenoxy)-2,5-difluoro-N-(1,2,4-thiadiazol-5-yl)benzenesulfonamide]
1000 to 10000 nM | O=S(=O)(Nc1ncns1)c1cc(F)c(Oc2ccc(Cl)cc2-n2cnc3cncnc32)cc1F [Example 40, 4-(4-chloro-2-(9H-purin-9-yl)phenoxy)-2,5-difluoro-N-(1,2,4-thiadiazol-5-yl)-benzenesulfonamide]
≤ 100 nM | Nc1cnc2ccc(-c3cc(Cl)ccc3Oc3cc(F)c(S(=O)(=O)Nc4ncns4)cc3F)cn12 [Example 42, 4-(2-(3-aminoimidazo[1,2-a]pyridin-6-yl)-4-chlorophenoxy)-2,5-difluoro-N-(1,2,4-thiadiazol-5-yl)benzenesulfonamide]
≤ 100 nM | Nc1noc2ccc(-c3cc(Cl)ccc3Oc3cc(F)c(S(=O)(=O)Nc4ncns4)cc3F)cc12 [Example 44, 4-(2-(3-aminobenzo[d]isoxazol-5-yl)-4-chlorophenoxy)-2,5-difluoro-N-(1,2,4-thiadiazol-5-yl)benzenesulfonamide]
≤ 100 nM | NC(=O)c1cnc2ccc(-c3cc(Cl)ccc3Oc3cc(F)c(S(=O)(=O)Nc4ncns4)cc3F)cn12 [Example 46, 6-(2-(4-(N-(1,2,4-thiadiazol-5-yl)sulfamoyl)-2,5-difluorophenoxy)-5-chlorophenyl)imidazo[1,2-a]pyridine-3-carboxamide]
≤ 100 nM | O=S(=O)(Nc1ncns1)c1cc(F)c(Oc2ccc(Cl)cc2-c2ccc3ocnc3c2)cc1F [Example 51, 4-(2-(benzo[d]oxazol-5-yl)-4-chlorophenoxy)-2,5-difluoro-N-(1,2,4-thiadiazol-5-yl)benzenesulfonamide]
≤ 100 nM | O=c1[nH]c2ccc(-c3cc(Cl)ccc3Oc3cc(F)c(S(=O)(=O)Nc4ncns4)cc3F)cc2o1 [Example 53, 4-(4-chloro-2-(2-oxo-2,3-dihydrobenzo[d]oxazol-6-yl)phenoxy)-2,5-difluoro-N-(1,2,4-thiadiazol-5-yl)benzenesulfonamide]
≤ 100 nM | O=C1Cc2ccc(-c3cc(Cl)ccc3Oc3cc(F)c(S(=O)(=O)Nc4ncns4)cc3F)cc2N1 [Example 55, 4-(4-chloro-2-(2-oxoindolin-6-yl)phenoxy)-2,5-difluoro-N-(1,2,4-thiadiazol-5-yl)benzenesulfonamide]
≤ 100 nM | Nc1nc2ccc(-c3cc(Cl)ccc3Oc3cc(F)c(S(=O)(=O)Nc4ncns4)cc3F)cc2o1 [Example 57, 4-(2-(2-aminobenzo[d]oxazol-6-yl)-4-chlorophenoxy)-2,5-difluoro-N-(1,2,4-thiadiazol-5-yl)benzenesulfonamide]
≤ 100 nM | O=S(=O)(Nc1ncns1)c1cc(F)c(Oc2ccc(Cl)cc2-c2ccc3nccnc3c2)cc1F [Example 59, 4-(4-chloro-2-(quinoxalin-6-yl)phenoxy)-2,5-difluoro-N-(1,2,4-thiadiazol-5-yl)benzenesulfonamide]
≤ 100 nM | O=S(=O)(Nc1ncns1)c1cc(F)c(Oc2ccc(Cl)cc2-c2ccc3[nH]cnc3c2)cc1F [Example 73, 4-(2-(1H-benzo[d]imidazol-5-yl)-4-chlorophenoxy)-2,5-difluoro-N-(1,2,4-thiadiazol-5-yl)benzenesulfonamide]
